According to US20250332112A1, “IONIZABLE CATIONIC LIPIDS FOR LIPID NANOPARTICLES” (GENEVANT SCIENCES GMBH, priority 2022, published 2025):

What was measured:
[1] = Particle characteristics of LNPs containing luciferase mRNA and novel ionizable lipids; assay type: physicochemical
Summary of the method: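 LNPs made from PEG-lipid, ionizable lipid, cholesterol and phospholipid in ethanol, T-mixed with luciferase mRNA in 100 mM acetate pH 5. Products were dialysed, concentrated, and dialysed into 5 mM Tris, 10% sucrose, pH 8, then 0.2 μm filtered. mRNA was measured by RiboGreen, and size and polydispersity by dynamic light scattering on a Zetasizer.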

[2] = Particle characteristics of LNPs containing EGFP mRNA and novel ionizable lipids; assay type: physicochemical; conditions: EGFP mRNA LNP 1.6:54.6:32.8:10.9
Summary of the method: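 LNPs of PEG-lipid, ionizable lipid, cholesterol and phospholipid in ethanol were mixed 1:1 with mRNA in 100 mM acetate pH 5 via T-junction, diluted in PBS, dialysed, concentrated to ~0.6 mg/mL and exchanged into 5 mM Tris, 10% sucrose, pH 8. Size and polydispersity by Zetasizer; nucleic acid by RiboGreen.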

[3] = test system: human OTC expression in the liver; assay: Dose response of human OTC mRNA LNP, OTC expression in liver (ELISA); assay type: in vivo; conditions: 24 h, male C57BL/6 mice (n = 4)
Method: (§1) LNP formulations encapsulating ornithine transcarbamylase mRNA were injected intravenously at the specified dose levels to male C57BL/6 mice (6-8 weeks old).
Liver homogenates were prepared with PBS, Halt protease inhibitor cocktail and FastPrep homogenization, standardized to 2 mg/mL protein with a BCA Protein Assay, and then analyzed by ELISA. Briefly, samples were diluted with PBS and plated on Nunc Maxisorp plates. A standard curve using human […] protein was prepared from the naïve animal controls (vehicle). After 2 h incubation the plates were washed, and the primary antibody was added. After 1 h incubation, the secondary antibody was added and incubated for another hour. After washing, TMB Substrate was added for color development and the reaction was stopped with 2 N sulfuric acid. The plate was read at 450/570 OD.
At 24 h post-dose, the novel lipid formulations reported dose-dependent increases in human OTC expression in the liver (Table 15).

[4] = Lipid clearance from liver over time after human OTC mRNA LNP (LC-MS); assay type: in vivo; conditions: IV 0.5 mg/kg human OTC mRNA LNP, male C57BL/6 mice (n = 4)
Method: as §1
Liver tissues were treated with PBS and homogenized with a FastPrep machine, 3 cycles of 5 m/s×15 s. Homogenates from the PBS-treated control animals was pooled and used for standard curve preparation. Samples were extracted into a deep well plate with 250 μL of an internal suitability standard. Plates were centrifuged for 15 min at 4° C. and 2000 rpm. Analysis was performed using an Agilent 6520 QTOF coupled to an Agilent 1290 UHPLC, using reverse-phase LC separation. Quantitation of the ionizable lipid was by MS/MS against a calibration curve spiked into appropriately matched blank matrix. Calibration used a similar class of synthetic lipid as internal standard.
At various timepoints post-dose, lipid levels were assessed in the liver. Some novel ionizable lipids reported more rapid clearance rates compared to the benchmark (Table 19).

[5] = test system: EGFP expression in the liver; assay: EGFP expression in liver after intravenous EGFP mRNA LNP (ELISA); conditions: 0.5 mg/kg IV, 24 h post-IV administration, BALB/c mice (n = 4)
[6] = Parent ionizable lipid remaining in liver at 24 h after EGFP mRNA LNP (LC-MS); assay type: in vivo; conditions: 24 h after IV 0.5 mg/kg EGFP mRNA LNP, female BALB/c mice (n = 4)
[7] = Table 1, luciferase mRNA LNP 1.6:54.6:32.8:10.9
[8] = Table 2, luciferase mRNA LNP 1.6:54.6:32.8:10.9
[9] = Table 3, luciferase mRNA LNP 1.6:54.6:32.8:10.9
[10] = Table 4, luciferase mRNA LNP 1.6:54.6:32.8:10.9
[11] = Table 5, luciferase mRNA LNP 1.6:54.6:32.8:10.9
[12] = Table 6, luciferase mRNA LNP 1.6:54.6:32.8:10.9
[13] = Table 7, luciferase mRNA LNP 1.6:54.6:32.8:10.9

CCCCC/C=C\CCCC(CCC/C=C\CCCCC)C(CCC/C=C\CCCCC)OC(=O)CCCCN(C)C (centres unmarked) [Compound 13-B43, reference compound]
Final Product % EE [1, 7]: 94%
Final Product PDI [1, 7]: 0.13
Final Product Z-avg ([1]; Table 1, luciferase mRNA LNP 1.6:54.6:32.8:10.9 PEG2000-C-DMA:Ionizable lipid:Cholesterol:DSPC): 70 nm
Final Product % EE [1, 8]: 99%
Final Product PDI [1, 8]: (0.03)
Final Product Z-avg [1, 8]: 72 nm
Final Product % EE [1, 9]: 99%
Final Product PDI [1, 9]: 0.06
Final Product Z-avg [1, 9]: 72 nm
Final Product % EE [1, 10]: 98%
Final Product PDI [1, 10]: 0.07
Final Product Z-avg [1, 10]: 72 nm
Final Product % EE [1, 11]: 98%
Final Product PDI [1, 11]: 0.06
Final Product Z-avg [1, 11]: 69 nm
Final Product % EE [1, 12]: 99%
Final Product PDI [1, 12]: 0.07
Final Product Z-avg [1, 12]: 77 nm
Final Product % EE [1, 13]: 98%
Final Product PDI [1, 13]: 0.06
Final Product Z-avg [1, 13]: 74 nm
Final Product % EE ([2]; Table 20): 98%
Final Product PDI ([2]; Table 20): 0.07
Final Product Z-avg ([2]; Table 20): 75 nm
Final Product % EE ([2]; Table 21): 97%
Final Product PDI ([2]; Table 21): 0.08
Final Product Z-avg ([2]; Table 21): 75 nm
Final Product % EE ([2]; Table 22): 97%
Final Product PDI ([2]; Table 22): 0.08
Final Product Z-avg ([2]; Table 22): 73 nm
Final Product % EE ([2]; Table 23): 98%
Final Product PDI ([2]; Table 23): 0.15
Final Product Z-avg ([2]; Table 23): 76 nm
Human OTC expression ([3]; 0.3 mg/kg IV): 908 ng hOTC/mg protein in liver
Human OTC expression ([3]; 1 mg/kg IV): 6651 ng hOTC/mg protein in liver
Human OTC expression ([3]; 3 mg/kg IV): 12413 ng hOTC/mg protein in liver
Parent ionizable lipid remaining in liver, Average ([4]; 0.25 h post-dose): 29.17 nmol/g liver
Parent ionizable lipid remaining in liver, Average ([4]; 1 h post-dose): 46.37 nmol/g liver
Parent ionizable lipid remaining in liver, Average ([4]; 3 h post-dose): 63.61 nmol/g liver
Parent ionizable lipid remaining in liver, Average ([4]; 6 h post-dose): 45.23 nmol/g liver
Parent ionizable lipid remaining in liver, Average ([4]; 24 h post-dose): 40.01 nmol/g liver
Parent ionizable lipid remaining in liver, Average ([4]; 168 h post-dose): 34.42 nmol/g liver
EGFP ([5]; Table 24): 3.75E+07 pg/g liver
EGFP ([5]; Table 25): 9.74E+04 pg/g liver
EGFP ([5]; Table 26): 5.23E+07 pg/g liver
EGFP ([5]; Table 27): 6.46E+07 pg/g liver
Parent ionizable lipid remaining in liver, Average ([6]; Table 28): 38.48 nmol/g liver
Parent ionizable lipid remaining in liver, Average ([6]; Table 29): 29.77 nmol/g liver
Parent ionizable lipid remaining in liver, Average ([6]; Table 30): 50.86 nmol/g liver
Parent ionizable lipid remaining in liver, Average ([6]; Table 31): 23.9 nmol/g liver
